# Tested on: UBE2L3-KRAS fusion protein
# Assay: Western blotting of UBE2L3-KRAS fusion protein in cells treated with bortezomib
# Type: cell-based, human
# Protocol: The prostate cancer cell lines DU145 were transfected with siRNA duplex (Dharmacon, Lafayette, Colo., USA) against UBE2L3 (5′-CCACCGAAGATCACATTTA-3′; SEQ ID NO:1), KRAS (5′-GAAGTTATGGAATTCCTTT-3′; SEQ ID NO:2) or the fusion junction (5′-CCGACCAAGGCCTGCTGAA-3′; SEQ ID NO:3) by oligofectamine (Invitrogen). DU145 transfected with non-targeting siRNA and RWPE cells was used as negative control. Post 48 hours transfection, cells were homogenized in NP40 lysis buffer (50 mM Tris-HCl, 1% NP40, pH 7.4, Sigma, St. Louis, Mo.), and complete proteinase inhibitor mixture (Roche, Indianapolis, Ind.). Ten micrograms of each protein extract were boiled in sample buffer, separated by SDS-PAGE, and transferred onto Polyvinylidene Difluoride membrane (GE Healthcare, Piscataway, N.J.). The membrane was incubated for one hour in blocking buffer [Tris-buffered saline, 0.1% Tween (TBS-T), 5% nonfat dry milk] and incubated overnight at 4° C. with the following antibodies: anti-RAS mouse monoclonal (1:1000 in blocking buffer, Millipore Cat #: 05-516), anti-KRAS rabbit polyclonal (1:1000, Proteintech Group Inc., Cat #: 12063-1-AP) and anti-beta Actin mouse monoclonal (1:5000, Sigma Cat #: A5441) antibodies. Following three washes with TBS-T, the blot was incubated with horseradish peroxidase-conjugated secondary antibody and the signals visualized by enhanced chemiluminescence system as described by the manufacturer (GE Healthcare). To test fusion protein expression in multiple prostate derived cell lines, lysates from DU145, PrEC, RWPE, 22RV1, VCaP, PC3 either untreated or treated with 500 nM bortezomib for 12 hours were used. Bortezomib treated HEK cells over-expressing UBE2L3-KRAS fusion protein was used as a positive control. […] For ERK activation analysis NIH 3T3 cells were starved for 12 hours before immunoblot analysis using phospho erk1/2 antibody. All antibodies for the MAPK signaling proteins were purchased from Cell Signaling Technologies.
structure (smiles),measurement,setting,value
CC(C)C[C@H](NC(=O)[C@H](Cc1ccccc1)NC(=O)c1cnccn1)B(O)O [bortezomib],levels of UBE2L3-KRAS protein expression (Western blot),"DU145 cells, 500 nM bortezomib for 12 hours",enhanced the levels of UBE2L3-KRAS protein expression
same,expression of the UBE2L3-KRAS fusion protein (Western blot),"HEK293 cells over-expressing UBE2L3-KRAS construct, 500 nM bortezomib for 12 hours",expression of the fusion protein was clearly apparent
same,expression of the UBE2L3-KRAS fusion protein (Western blot),RWPE prostate epithelial cells overexpressing UBE2L3-KRAS,proteosomal inhibition with bortezomib was required

# Reference: US20140364331A1, “RECURRENT GENE FUSIONS IN PROSTATE CANCER” (THE REGENTS OF THE UNIVERSITY OF MICHIGAN, priority 2009, published 2014)
